Assay results reported in patent US7495015B2, “Indazole derivatives and methods for using the same” (Roche Palo Alto LLC, priority 2004, dated 2009).
pIC50: −log10 of the molar value.

Molecular target: T1, p38 MAP kinase (Homo sapiens, UniProt Q16539)
T1 construct: made in house; host or cells: E. coli (co-expressed with SEK-1 and MEKK to obtain the phosphorylated form)
Test: p38 (MAP) kinase in vitro assay (transfer of γ-phosphate from γ-33P-ATP to Myelin Basic Protein)
Format: biochemical
Details: phosphorylated recombinant p38 MAP kinase, MBP substrate, 30° C.
Description: This example illustrates a p38 (MAP) kinase in vitro assay useful for evaluating the compounds of the invention.
The p38 MAP kinase inhibitory activity of compounds of this invention in vitro was determined by measuring the transfer of the γ-phosphate from γ-^33P-ATP by p-38 kinase to Myelin Basic Protein (MBP), using a minor modification of the method described in Ahn, et al., J. Biol. Chem. 266:4220-4227 (1991).
The phosphorylated form of the recombinant p38 MAP kinase was co-expressed with SEK-1 and MEKK in E. Coli (see, Khokhlatchev, et al., J Biol. Chem. 272:11057-11062 (1997)) and then purified by affinity chromatography using a Nickel column.
The phosphorylated p38 MAP kinase was diluted in kinase buffer (20 mM 3-(N-morpholino)propanesulfonic acid, pH 7.2, 25 mM β-glycerol phosphate, 5 mM ethylene glycol-bis(beta-aminoethyl ether)-N,N,N′,N′-tetraacetic acid, 1 mM sodium ortho-vanadate, 1 mM dithiothreitol, 40 mM magnesium chloride). Test compound dissolved in DMSO or only DMSO (control) was added and the samples were incubated for 10 min at 30° C. The kinase reaction was initiated by the addition of a substrate cocktail containing MBP and γ-^33P-ATP. […] The phosphorylated MBP was then separated from the residual γ-^33P-ATP using a phosphocellulose membrane (Millipore, Bedfrod, Mass.) and quantitated using a scintillation counter (Packard, Meriden, Conn.).

T1 sequence (Q16539 whole entry): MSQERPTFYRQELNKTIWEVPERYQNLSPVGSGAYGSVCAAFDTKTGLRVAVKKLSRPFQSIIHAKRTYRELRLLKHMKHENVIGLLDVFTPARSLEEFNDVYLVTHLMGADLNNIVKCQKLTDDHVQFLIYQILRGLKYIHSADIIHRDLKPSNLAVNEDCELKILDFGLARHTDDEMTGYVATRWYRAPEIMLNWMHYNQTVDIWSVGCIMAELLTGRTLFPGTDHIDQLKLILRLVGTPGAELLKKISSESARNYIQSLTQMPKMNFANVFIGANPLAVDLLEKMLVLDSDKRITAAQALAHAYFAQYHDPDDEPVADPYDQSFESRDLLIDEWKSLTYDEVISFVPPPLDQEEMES

**Q.** `Oc1ccc(-c2n[nH]c3cc(Oc4ccccc4F)ccc23)cc1` [Compound 35, 4-[6-(2-Fluoro-phenoxy)-1H-indazol-3-yl]-phenol] was tested. Which pIC50 did it give?
**A.** Its pIC50 is 7.55.
